Data reported in US20130072505A1, “6,9-Disubstituted Purine Derivatives and Their Use for Treating Skin” (priority 2006, published 2013).
Entries after “also recorded” stand apart in the source; their conditions may differ. Read-outs that look alike come from different tables or passages of the source. Marks after values point to notes of the source that are not given here.

Key:
breast carcinoma MCF-7 = assay: in vitro cytotoxic activity, Calcein AM microtiter assay; type: cell-based; conditions: Homo sapiens, MCF7; 72 hours; highest concentration 166.7 μM
Description: (§1) In vitro cytotoxic activity of several of the 6,9-disubstituted purine derivatives of this invention was determined using a microtiter assay with Calcein AM and a panel of cell lines of different histogenetic and species origin; kinetin was also examined as a control. Because only metabolically active cells cleave Calcein AM (tetraacetoxymethyl ester of calcein), the intracellular concentration of calcein corresponds to the number of vital cells in the culture.
(§2) The following cell lines were used: human osteosarcoma (HOS); breast carcinoma MCF-7; human myeloid leukemia K-562; and mouse fibroblasts NIH3T3. The cells were maintained in Nunc/Corning 80 cm^2 plastic tissue culture flasks and cultured in cell culture medium (DMEM with 5 g/l glucose, 2 mM glutamine, 100 U/ml penicillin, 100 μg/ml streptomycin, 10% fetal calf serum, and sodium bicarbonate).
(§3) The cell suspensions were prepared and diluted according to the particular cell type and the expected target cell density (2.500-30.000 cells per well based on cell growth characteristics) were added by pipette (80 μl) into 96/well microtiter plates. Inoculates were allowed a pre-incubation period of 24 hours at 37° C. and 5% CO2 for stabilization. Four-fold dilutions of the intended test concentration were added at time zero in 20 μl aliquots to the microtiter plate wells. The test compounds were generally evaluated at six 4-fold dilutions. The highest well concentration used in the present study was 166.7 μM. All samples were examined in triplicates. Incubations of cells with the tested compounds was for 72 hours at 37° C., in 5% CO2 atmosphere and 100% humidity. At the end of the incubation period, Calcein AM was added to a final concentration of 1 μg/ml incubated for 1 hour. Fluorescence intensity (FI) was measured with a Labsystem FIA Reader Fluoroscan Ascent (UK). The cell survival (GI50) was calculated using the following equation: GI50=([…])/(mean FIcontrol well−mean FIblank)×100%. The GI50 value, the drug concentration lethal to 50% of the cells, was calculated from the obtained dose response curves.

[1] = system: human myeloid leukemia K-562; assay: as above; type: cell-based; conditions: K562, 72 hours, highest concentration 166.7 μM
Description: as §1, §2, §3

human osteosarcoma (HOS) = assay: as above; type: cell-based; conditions: 72 hours, highest concentration 166.7 μM
Description: as §1, §2, §3

mouse fibroblasts NIH3T3 = assay: as above; type: cell-based; conditions: read-out: GI50 NIH-3T3
Description: as §1, §2, §3

[2] = system: Human forskin fibroblasts (cell line BJ); assay: in vitro cytotoxic activity, MTT assay; type: cell-based; conditions: 72 hours; BJ fibroblasts at middle passage
Description: In vitro cytotoxic activity of several of the 6,9-disubstituted purine derivatives of this invention against human diploid fibroblasts was determined by standard MTT assay optimized for 96-well plates. The assay is based on spectrofotometric measurement of the product of metabolic conversion of MTT by mitochondria of living cells.
Human forskin fibroblasts (cell line BJ) at middle passage were maintained in 75 cm^2 plastic tissue culture flasks and cultured in cell culture medium (DMEM with 5 g/l glucose, 2 mM glutamine, 100 U/ml penicillin, 100 μg/ml streptomycin, 10% fetal calf serum, and sodium bicarbonate).
About 5,000 cells were seeded per well of the 96-well plate. After 24 hours the cell culture medium was replaced with the cell culture medium containing a test compound. The test compounds were evaluated at six 2-fold dilutions. The highest concentration used in the present study was usually 200 μM. In the case of compounds with limited solubility in the culture medium the highest concentration was adjusted. Every test compound was examined in five replicates. Cells with the test compounds were incubated for 72 hours at 37° C. in 5% CO2 atmosphere and 100% humidity. At the end of the incubation period, the culture medium was replaced with the cell culture medium containing MTT (0.5 mg/ml) and cells were incubated for another 3 hours. The formazan formed was solubilized by DMSO and absorbance at 570 nm was measured. Ability of the tested compounds to inhibit MTT reducing activity of the cells was calculated as IC=(Acompound exposed well−mean Ablank)/(mean Acontrol well−meanAblank)×100%. IC10, the drug concentration causing 10% decrease in MTT reducing activity, was calculated from the obtained dose response curves.

[3] = system: Human diploid fibroblasts (HCA cells); assay: inhibition of senescence, β-galactosidase staining; type: cell-based; conditions: test compounds about 50 μM at each passage; for Senescent Cells (%) HCA25: passage 25; for Senescent Cells (%) HCA80: passage 80
Description: Inhibition of senescence by several of the 6,9-disubstituted purine derivatives of this invention was determined; kinetin was also evaluated as a control. […] The medium used for the cell cultivation was removed, the cells were washed twice in PBS, and fixed in 2-3 ml of fixing solution comprised of a 2% formaldehyde and 0.2% glutaraldehyde in PBS. The cells were incubated at room temperature for 5 minutes, and then washed twice with PBS. The cells were subsequently incubated at 37° C. (without CO2) for 1 to 16 hours in 2-3 ml of the solution comprising potassium ferricyanide (5 mM), potassium ferrocyanide (5 mM), MgCl2 (2 mM), X-gal (5-bromo-4-chloro-3-indolyl-β-D-galactopyranoside) (1 mg/ml), in citric/phosphate buffer (pH 6.0). The test compounds (about 50 μM) were added to the medium at each passage. […] In this experiment, only senescent cells were stained blue due to the action of β-galactosidase on the substrate.

[4] = system: Rat C6 glioma (ATCC No. CCL107); assay: anti-inflammatory activity: isoproterenol-induced intracellular cAMP synthesis; type: cell-based; conditions: cAMP after 30 min with (−)-isoproterenol
Description: Anti-inflammatory activity of several of the 6,9-disubstituted purine derivatives of this invention was determined; kinetin was also evaluated as a control. Rat C6 glioma (ATCC No. CCL107) was cultivated in monolayer in serum-free chemically defined medium containing Ham's F10/minimal essential medium (1:1 v/v), 2 mM L-glutamine, 1% (v/v) minimal essential medium vitamins (100×), 1% (v/v) minimal essential medium nonessential amino acids (100×), 100 U/ml penicillin, […], and 30 nM sodium selenite. Incubation was performed at 37° C. in a humidified atmosphere. The assays were performed in the logaritmic growth phase at a density of 2.5×10^5 cells/cm^2. Intracellular cAMP synthesis was induced by addition of 5 mM (−)-isoproterenol; various amounts of test compounds were added at the same time as the (−)-isoproterenol. After 30 min incubation at 37° C., the medium was removed and the cellular amount of cAMP was determined using the cAMP-enzyme immunoassay kit from Amersham. The I50 value was determined from a dose-response curve in duplicate.

photodamaged facial skin = assay: earlier clinical study of topically applied kinetin (0.1%); type: in vivo, human; conditions: kinetin 0.1% topical; for Mean Improvement from Baseline: Coarse Wrinkles / Mean Improvement from Baseline: Fine Wrinkles / Mean Improvement from Baseline: Mottled Hyperpigmentation / Mean Improvement from Baseline: Overall Skin Condition / Mean Improvement from Baseline: Roughness: expert evaluation; for Subjects Reporting Improvement from Baseline: Blotchiness / Subjects Reporting Improvement from Baseline: Color / Subjects Reporting Improvement from Baseline: Fine Wrinkles / Subjects Reporting Improvement from Baseline: Texture: self assessment
Source text: This Example compares the clinical data for topically applied 6-furfurylamino-9-(2-tetrahydropyranyl)purine (0.10%) taken from Example 23 with similar clinical data generated for topically applied kinetin (0.1%) from an earlier study. The protocol for the earlier clinical trial for kinetin was similar to the protocol as described in Example 23 for the inventive compound; thirty two female volunteers completed the earlier kinetin study. This comparison is based on the expert evaluations and self evaluations of skin condition for eight and twelve week data for some of the parameters evaluated in both studies.

[5] = system: cultured human fibroblasts; conditions: cited from earlier work

In the case of COc1ccc(CNc2ncnc3c2ncn3C2CCCCO2)cc1 (centres unmarked) [6-(4-methoxybenzylamino)-9-(2-tetrahydropyranyl)purine], the GI50 (breast carcinoma MCF-7) is reported as over 167 µM, the GI50 [1] is reported as over 167 µM and the GI50 (human osteosarcoma (HOS)) is reported as over 167 µM. For the same compound, the GI50 (mouse fibroblasts NIH3T3; NIH3T3, 72 hours, highest concentration 166.7 μM) was over 167 µM, the “IC10 (concentration causing 10% decrease in MTT reducing activity)” value [2] was over 100 µmol/L and the “Senescent Cells (%) HCA50” value [3] was 3%. For the same compound, the “Senescent Cells (%) HCA25” value [3] was 4%, the “Senescent Cells (%) HCA80” value [3] was 26% and the melting point was 137 to 138 °C.

c1coc(CNc2ncnc3nc[nH]c23)c1 [Kinetin, N6-furfuryl-adenine] showed a GI50 (breast carcinoma MCF-7) of over 167 µM, a GI50 [1] of 164 µM and a GI50 (human osteosarcoma (HOS)) of over 167 µM. For the same compound, the GI50 (mouse fibroblasts NIH3T3; NIH3T3, 72 h) was 155 µM, the “Senescent Cells (%) HCA50” value [3] was 5% and the “Senescent Cells (%) HCA25” value [3] was 3%. For the same compound, the “Senescent Cells (%) HCA80” value [3] was 38%, the “Anti-inflammatory Activity Effect” value [4] was “inactive; also recorded: Not active” and the “Mean Improvement from Baseline: Coarse Wrinkles” value (photodamaged facial skin; Eight Week Data) was 4%. For the same compound, the “Mean Improvement from Baseline: Fine Wrinkles” value (photodamaged facial skin; Eight Week Data) was 2%, the “Mean Improvement from Baseline: Mottled Hyperpigmentation” value (photodamaged facial skin; Eight Week Data) was 25%* and the “Mean Improvement from Baseline: Overall Skin Condition” value (photodamaged facial skin; Eight Week Data) was 3%. The “Mean Improvement from Baseline: Roughness” value (photodamaged facial skin; Eight Week Data) was 35%, the “Mean Improvement from Baseline: TEWL” value (photodamaged facial skin; Eight Week Data) was 13% and the “Subjects Reporting Improvement from Baseline: Blotchiness” value (photodamaged facial skin; Eight Week Data) was 50%. For the same compound, the “Subjects Reporting Improvement from Baseline: Color” value (photodamaged facial skin; Eight Week Data) was 53%, the “Subjects Reporting Improvement from Baseline: Fine Wrinkles” value (photodamaged facial skin; Eight Week Data) was 57% and the “Subjects Reporting Improvement from Baseline: Texture” value (photodamaged facial skin; Eight Week Data) was 77%. The “Mean Improvement from Baseline: Coarse Wrinkles” value (photodamaged facial skin; Twelve Week Data) was 4%, the “Mean Improvement from Baseline: Fine Wrinkles” value (photodamaged facial skin; Twelve Week Data) was 6%* and the “Mean Improvement from Baseline: Mottled Hyperpigmentation” value (photodamaged facial skin; Twelve Week Data) was 25%*. The “Mean Improvement from Baseline: Overall Skin Condition” value (photodamaged facial skin; Twelve Week Data) was 4%*, the “Mean Improvement from Baseline: Roughness” value (photodamaged facial skin; Twelve Week Data) was 52%* and the “Mean Improvement from Baseline: TEWL” value (photodamaged facial skin; Twelve Week Data) was 15%. The “Subjects Reporting Improvement from Baseline: Blotchiness” value (photodamaged facial skin; Twelve Week Data) was 74%, the “Subjects Reporting Improvement from Baseline: Color” value (photodamaged facial skin; Twelve Week Data) was 71% and the “Subjects Reporting Improvement from Baseline: Fine Wrinkles” value (photodamaged facial skin; Twelve Week Data) was 71%. The “Subjects Reporting Improvement from Baseline: Texture” value (photodamaged facial skin; Twelve Week Data) was 87% and the “morphological and biochemical characteristics associated with serial passaging of cells” value [5] was “delayed the onset and decreased the extent of many morphological and biochemical characteristics associated with serial passaging of cells”.
